Common to all, as to assay type: biochemical
Experiment [1] addresses T1, BdDHS1a (3-deoxy-D-arabino-heptulosonate 7-phosphate synthase) (Brachypodium distachyon, UniProt I1GSB3).
T1 construct: gene LOC100823133; without the predicted plastid transit peptide
Kind of experiment: recombinant purified enzyme, DHS activity (PEP consumption at […] nm). The settings on record: read-out: IC50 / (μM Agn).

Experiment [2] addresses T2, BdDHS2 (3-deoxy-D-arabino-heptulosonate 7-phosphate synthase) (Brachypodium distachyon, UniProt I1I809).
T2 construct: gene LOC100821423; without the predicted plastid transit peptide
Described as above. The settings on record: read-out: IC50 / (μM Agn).

Experiment [3] has as its target T3, BdTyrAnc (non-canonical arogenate dehydrogenase) (Brachypodium distachyon, UniProt I1GYB3).
T3 construct: gene LOC100829970; without the predicted plastid transit peptide, poly-histidine tag
T3 sequence (I1GYB3 51-361): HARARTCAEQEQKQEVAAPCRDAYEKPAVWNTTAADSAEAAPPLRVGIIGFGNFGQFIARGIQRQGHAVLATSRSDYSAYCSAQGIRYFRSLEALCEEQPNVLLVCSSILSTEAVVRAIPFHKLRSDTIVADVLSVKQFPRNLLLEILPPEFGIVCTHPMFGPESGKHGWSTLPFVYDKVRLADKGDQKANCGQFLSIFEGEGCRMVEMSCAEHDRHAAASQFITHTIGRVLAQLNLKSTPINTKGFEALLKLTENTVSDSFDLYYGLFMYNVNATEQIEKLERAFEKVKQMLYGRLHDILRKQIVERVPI
Kind of experiment: Michaelis-Menten kinetics of recombinant purified enzyme (Km).

Experiment [4] concerns the target T2, BdDHS2 (3-deoxy-D-arabino-heptulosonate 7-phosphate synthase). The experiment in a line: recombinant purified enzyme, DHS activity assay. As to conditions: read-out: IC50 / (μM Trp).
The target in experiment [5] is T4, BdTyrA2 (arogenate dehydrogenase) (Brachypodium distachyon, UniProt I1GWX1).
T4 construct: gene LOC100833753; without the predicted plastid transit peptide, poly-histidine tag
T4 sequence (I1GWX1 56-365): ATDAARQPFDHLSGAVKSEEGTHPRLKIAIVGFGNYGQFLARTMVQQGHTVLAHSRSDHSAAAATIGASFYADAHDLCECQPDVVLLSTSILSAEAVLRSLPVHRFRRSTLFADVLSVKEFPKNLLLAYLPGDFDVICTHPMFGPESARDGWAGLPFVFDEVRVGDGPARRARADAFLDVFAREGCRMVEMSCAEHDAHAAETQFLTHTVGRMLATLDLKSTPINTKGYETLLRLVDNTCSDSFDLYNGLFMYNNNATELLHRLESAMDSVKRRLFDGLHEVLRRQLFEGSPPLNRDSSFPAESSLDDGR
The experiment in a line: recombinant purified enzyme, arogenate dehydrogenase assay (NADPH at […] nm); Ki calculated from IC50 and Km. As to conditions: read-out: Ki / (μM tyrosine).

Experiment [6] addresses T3, BdTyrAnc (non-canonical arogenate dehydrogenase). The experiment is described as above. The settings on record: read-out: Ki / (μM tyrosine).

Structures are written as SMILES.

T2 sequence (I1I809 51-503): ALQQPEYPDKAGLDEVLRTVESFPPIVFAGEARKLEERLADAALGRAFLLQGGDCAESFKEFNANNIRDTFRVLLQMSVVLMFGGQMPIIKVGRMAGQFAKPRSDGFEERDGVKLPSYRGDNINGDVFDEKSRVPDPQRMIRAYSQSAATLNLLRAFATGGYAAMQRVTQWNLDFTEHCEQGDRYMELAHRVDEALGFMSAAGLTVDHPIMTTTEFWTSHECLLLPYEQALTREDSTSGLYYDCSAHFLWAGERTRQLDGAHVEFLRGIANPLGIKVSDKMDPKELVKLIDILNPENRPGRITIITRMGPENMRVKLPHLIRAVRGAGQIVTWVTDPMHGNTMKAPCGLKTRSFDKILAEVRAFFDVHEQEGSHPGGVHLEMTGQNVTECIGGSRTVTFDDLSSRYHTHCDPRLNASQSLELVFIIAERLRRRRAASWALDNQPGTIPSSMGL
T1 sequence (I1GSB3 46-537): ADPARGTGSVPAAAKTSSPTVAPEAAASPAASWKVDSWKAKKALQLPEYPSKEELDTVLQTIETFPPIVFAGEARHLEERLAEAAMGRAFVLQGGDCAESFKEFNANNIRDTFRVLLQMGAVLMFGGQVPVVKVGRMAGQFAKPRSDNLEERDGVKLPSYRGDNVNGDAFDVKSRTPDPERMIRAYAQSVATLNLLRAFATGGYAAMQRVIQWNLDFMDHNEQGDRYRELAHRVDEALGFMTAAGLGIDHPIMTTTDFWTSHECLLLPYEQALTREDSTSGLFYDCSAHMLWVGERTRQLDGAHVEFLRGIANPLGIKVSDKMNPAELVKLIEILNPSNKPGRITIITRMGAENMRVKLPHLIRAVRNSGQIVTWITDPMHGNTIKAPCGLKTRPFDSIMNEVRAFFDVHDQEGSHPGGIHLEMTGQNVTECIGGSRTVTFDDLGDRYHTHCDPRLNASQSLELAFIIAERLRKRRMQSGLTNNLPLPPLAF

With `N[C@@H](C[C@]1(C(=O)O)C=C[C@@H](O)C=C1)C(=O)O` [arogenate], the IC50 in experiment [1] came out at 285 ± 24 µM; in experiment [2], 91 ± 11 µM. For the same compound, the Km in experiment [3] was determined as 0.13 ± 0.04 mM.

In the case of `N[C@@H](Cc1c[nH]c2ccccc12)C(=O)O` [tryptophan], the IC50 in experiment [4] was 120 ± 4 µM.

Turning to `N[C@@H](Cc1ccc(O)cc1)C(=O)O` [tyrosine], the values for the Ki in experiment [5] and in experiment [6] were 8 ± 2 µM and 64 ± 25 µM, respectively.

Usually Km stands for the substrate concentration at which the rate is half of its maximum.
